# In the Kinase Knowledgebase extract (Sharma et al. 2016):
# Target: MAPK14 (UniProt Q16539)
# Assay: Inhibition of MAPK14 Kinase Activity
# Sequence of MAPK14 (Q16539 whole entry, looked up): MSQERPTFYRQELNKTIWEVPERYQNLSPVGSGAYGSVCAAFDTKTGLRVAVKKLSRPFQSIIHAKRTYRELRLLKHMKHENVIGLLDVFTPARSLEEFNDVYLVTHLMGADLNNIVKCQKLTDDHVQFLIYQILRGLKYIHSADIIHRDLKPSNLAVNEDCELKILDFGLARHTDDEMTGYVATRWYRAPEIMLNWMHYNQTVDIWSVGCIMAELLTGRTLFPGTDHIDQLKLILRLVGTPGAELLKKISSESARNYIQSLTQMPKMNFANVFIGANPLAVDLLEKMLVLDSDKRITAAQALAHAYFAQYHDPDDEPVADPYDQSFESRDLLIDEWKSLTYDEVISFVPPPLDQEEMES
row,SMILES,IC50 [nM]
1,C[C@@H]1CN(Cc2ccc(F)cc2)[C@@H](C)CN1C(=O)c1nc2cc[nH]c2cc1Cl,66
2,COc1nc2c(cc1C(=O)N1CCC(Cc3ccc(F)cc3)CC1)c(C(=O)C(=O)N1CCCC1)cn2C,35
3,COc1cc2[nH]ccc2nc1C(=O)N1C[C@H](C)N(Cc2ccc(F)cc2)C[C@H]1C,41
4,CNC(=O)C(=O)c1c[nH]c2nc(OC)c(C(=O)N3CCC(Cc4ccc(F)cc4)CC3)cc12,44
5,COc1nc2[nH]cc(C(=O)C(=O)NN3CCCC3)c2cc1C(=O)N1CCC(Cc2ccc(F)cc2)CC1,39
6,COc1nc2[nH]cc(C(=O)C(=O)N(C)C)c2cc1C(=O)N1CCC(Cc2ccc(F)cc2)CC1,60
7,COc1nc2[nH]ccc2cc1C(=O)N1C[C@H](C)N(Cc2ccc(F)cc2)C[C@H]1C,35
8,CCNC(=O)C(=O)c1cn(C)c2nc(OC)c(C(=O)N3C[C@H](C)N(Cc4ccc(F)cc4)C[C@H]3C)cc12,20
9,COCn1ccc2cc(C(=O)N3CCC(Cc4ccc(F)cc4)CC3)c(OC)nc21,340
10,COc1nc2[nH]cc(C(=O)C(=O)N3CC[C@@H](O)C3)c2cc1C(=O)N1CCC(Cc2ccc(F)cc2)CC1,32
11,COc1nc2[nH]cc(C(=O)C(=O)N3CCCC3)c2cc1C(=O)N1CCC(Cc2ccc(F)cc2)CC1,50
12,CCN(C)C(=O)C(=O)c1c[nH]c2nc(OC)c(C(=O)N3CCC(Cc4ccc(F)cc4)CC3)cc12,63
13,COCC(=O)c1c[nH]c2nc(OC)c(C(=O)N3CCN(Cc4ccc(F)cc4)C[C@H]3C)cc12,76
14,COCn1cc(C(=O)C(=O)N2CCCC2)c2cc(C(=O)N3CCC(Cc4ccc(F)cc4)CC3)c(OC)nc21,79
15,COc1nc2[nH]cc(C(=O)C(=O)NCCO)c2cc1C(=O)N1CCC(Cc2ccc(F)cc2)CC1,56
16,COCn1cc(C(=O)C(=O)NC(C)C)c2cc(C(=O)N3C[C@H](C)N(Cc4ccc(F)cc4)C[C@H]3C)c(OC)nc21,60
